Patent US20230002377A1, “THERAPEUTIC COMBINATIONS OF DRUGS AND METHODS OF USING THEM” (HARMONY BIOSCIENCES, LLC, priority 2020, published 2023)
Where “and” joins values, the source holds several entries; their conditions need not be identical. Equal entries are not always repeated.

Target: T1, dopamine transporters (DAT) (Homo sapiens, UniProt Q01959)
T1 construct: evaluate in healthy male volunteers with respect to safety, tolerability and pharmacokinetics as well as DAT and SERT occupancy; from tissue; host or cells: living human brain (striatum), PET in healthy male volunteers
Assay: PET study of striatal DAT occupancy with 11C-PE2I in healthy male volunteers
Type: in vivo
From the text: The PET study was a part of a strategy in previous clinical development of the compound of formula I to evaluate in healthy male volunteers with respect to safety, tolerability and pharmacokinetics as well as DAT and SERT occupancy. […]
Striatal receptor occupancy at dopamine transporters (DAT) and serotonin transporters (SERT) with plasma concentrations of Formula I at the midpoint time of the post dosing PET (positron emission tomography) scans (T=4 and 24) after once-a-day multiple doses of 3-60 mg and 10-60 mg for SERT and DAT healthy male cohorts, respectively (Tables below, RO stands for receptor occupancy). Post dosing PET scans were conducted at day 10 (4 h post last dose) and day 14 (24 h post last dose) assuming steady state conditions, using the specific DAT and SERT tracers ^11C-PE2I and ^11C-MADAM, respectively. For 45 mg and 60 mg cohorts, there was titration by administration of 30 mg for 3 days and then from day 4 the specified dose. Representative reports on using these two tracers are Leamed-Coughlin S M et al, Biol Psychiatry. 2003, 54(8):800-5; Jucaite A et al, Eur J Nucl Med Mol Imaging. 2006, 33(6):657-68; and Lundberg J et al, Int J Neuropsychopharmacol. 2007, 10(6):777-85.

T1 sequence (Q01959 whole entry): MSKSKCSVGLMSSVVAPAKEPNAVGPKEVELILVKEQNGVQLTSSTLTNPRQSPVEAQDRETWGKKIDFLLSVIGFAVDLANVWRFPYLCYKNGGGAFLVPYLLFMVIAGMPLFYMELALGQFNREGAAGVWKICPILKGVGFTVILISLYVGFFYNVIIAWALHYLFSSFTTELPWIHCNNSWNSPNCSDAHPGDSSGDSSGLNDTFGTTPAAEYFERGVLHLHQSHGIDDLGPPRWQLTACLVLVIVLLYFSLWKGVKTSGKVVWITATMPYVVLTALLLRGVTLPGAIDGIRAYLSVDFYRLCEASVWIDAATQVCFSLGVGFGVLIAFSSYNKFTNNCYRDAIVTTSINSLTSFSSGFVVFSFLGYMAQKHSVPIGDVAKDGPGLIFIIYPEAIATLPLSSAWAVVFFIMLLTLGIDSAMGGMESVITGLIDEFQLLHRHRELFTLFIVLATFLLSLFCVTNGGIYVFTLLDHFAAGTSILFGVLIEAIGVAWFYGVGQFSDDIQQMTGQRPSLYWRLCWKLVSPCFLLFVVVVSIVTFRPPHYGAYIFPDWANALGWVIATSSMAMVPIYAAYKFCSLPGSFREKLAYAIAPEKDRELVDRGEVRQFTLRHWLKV

For Clc1ccc(C2CNCc3cc(-c4ccc5ncnn5c4)ccc32)cc1Cl (centres unmarked) [Formula I, 7-([1,2,4]triazolo[1,5-a]pyridin-6-yl)-4-(3,4-dichlorophenyl)-1,2,3,4-tetrahydroisoquinoline], the “DAT RO %” value (10 mg once a day, day 10, 4 h post dose) was 12% and 21% and 18%, the “DAT RO %” value (30 mg once a day, day 10, 4 h post dose) was 22% and 43% and 36% and the “DAT RO %” value (30 mg once a day, day 14, 24 h post last dose) was 26% and 23% and 43%. For the same compound, the “DAT RO %” value (45 mg once a day (30 mg for 3 days first), day 10, 4 h post dose) was 42% and 44% and 48%, the “DAT RO %” value (45 mg once a day (30 mg for 3 days first), day 14, 24 h post last dose) was 36% and 41% and 43% and the “DAT RO %” value (60 mg once a day (30 mg for 3 days first), day 10 (subject 77: day 11), 4 h post dose) was 60% and 59%. The “DAT RO %” value (60 mg once a day (30 mg for 3 days first), day 14, 24 h post last dose) was 48% and 49% and the DAT occupancy (following multiple doses of 60 mg) was “up to 60%”.
